These results are taken from patent US8658642B2 (Axikin Pharmaceuticals, Inc., priority 2009, dated 2014).

pKi: −log10 of the molar value. A value given as a limit tells only on which side of the number the result lay.

The pKi is −log10 of the Ki, conventionally taken in molar units. The low end stands for a high Ki, the high end for a low Ki.

The target of this test is T1, CCR3 (Homo sapiens, UniProt P51677).
T1 sequence (P51677 1-355): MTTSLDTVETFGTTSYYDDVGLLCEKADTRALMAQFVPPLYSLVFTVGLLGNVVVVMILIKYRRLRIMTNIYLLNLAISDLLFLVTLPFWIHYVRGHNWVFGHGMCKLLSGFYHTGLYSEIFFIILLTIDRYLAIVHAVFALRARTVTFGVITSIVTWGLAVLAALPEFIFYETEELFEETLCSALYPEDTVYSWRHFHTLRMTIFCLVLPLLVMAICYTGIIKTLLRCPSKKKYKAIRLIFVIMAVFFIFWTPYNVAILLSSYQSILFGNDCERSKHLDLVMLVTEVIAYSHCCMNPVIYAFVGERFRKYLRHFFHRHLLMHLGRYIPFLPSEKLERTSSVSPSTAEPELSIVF
Nature of the test: CCR3 receptor binding assay ([125I]-labeled human eotaxin/CCL11 displacement on cells). Conditions: 0.1 nM [125I]-labeled human eotaxin/CCL11, 2×10^5 cells/well, 60 min at room temperature. On the procedure: CCR3 Receptor Binding Assay
Cells were washed once with PBS and resuspended in a binding buffer (25 mM HEPES pH 7.6, 5 mM MgCl2, 1 mM CaCl2, 0.5% BSA, 0.1% NaN3). […] of cell suspension (2×10^5 cells/well) and 0.1 nM [^125I]-labeled human eotaxin/CCL11 (2000 Ci/mmol specific activity) were mixed in a 96-well U-bottom polypropylene plate, and incubated for 60 min at room temperature for the binding reaction. The cell suspension was then transferred to a filtration plate (#MAFB, Millipore), and washed 3 times with the binding buffer containing 0.5 M NaCl, scintillant added, and the radioactivity was counted on a TopCount (Packard). For the determination of non-specific binding, the cell suspension and [^125I]-labeled human eotaxin/CCL11 were incubated in the presence of 500 nM of unlabeled human eotaxin/CCL11. See, lino et al., “Molecular cloning and functional characterization of cynomolgus monkey (Macaca fascicularis) CC chemokine receptor, CCR3,” Cytokine 2002, 19, 276-286.
Compound `Cc1cc(C)cc(Oc2ccc(C#N)cc2S(=O)(=O)N2CCN(S(C)(=O)=O)CC2)c1` [Compound 52, 4-(3,5-Dimethylphenoxy)-3-(4-(methylsulfonyl)piperazin-1-ylsulfonyl)benzonitrile] showed a negative logarithm of the Ki (pKi) of less than 5.30.
Turning to `N#Cc1ccc(Oc2cc(Cl)cc(Cl)c2)c(S(=O)(=O)N2CCN(C(=O)C3CCC3)CC2)c1` [Compound 73, 3-(4-(Cyclobutanecarbonyl)piperazin-1-ylsulfonyl)-4-(3,5-dichlorophenoxy)benzonitrile], the pKi was less than 5.30.
For the compound `CC(C)NC(=S)N1CCN(S(=O)(=O)c2cc(C#N)ccc2Sc2cc(Cl)cc(Cl)c2)CC1` [Compound 101], the negative logarithm of the Ki (pKi) was less than 5.30.
As for `N#Cc1ccc(Oc2cc(Cl)cc(Cl)c2)c(S(=O)(=O)N2CCN(C(=S)NCCN3CCOCC3)CC2)c1` [Compound 137], the figure is 6.30 to 7.30.
As for `N#Cc1ccc(Oc2cc(Cl)cc(Cl)c2)c(S(=O)(=O)N2CCN(C(=O)c3ccc4nonc4c3)CC2)c1` [Compound 130], the figure is less than 5.30; as for `N#Cc1ccc(Oc2cc(Cl)cc(Cl)c2)c(S(=O)(=O)N2CCN(C(=O)c3cc4ccccc4s3)CC2)c1` [Compound 131], less than 5.30; as for `Cc1cc(C)cc(Oc2ccc(C#N)cc2S(=O)(=O)N2CCN(C(=S)N(C)C)CC2)c1` [Compound 121], less than 5.30.
As for `CC(C)C(=O)N1CCN(S(=O)(=O)c2cc(C#N)ccc2Sc2cc(Cl)cc(Cl)c2)CC1` [Compound 112], the figure is less than 5.30.
`N#Cc1ccc(Oc2cc(Cl)cc(Cl)c2)c(S(=O)(=O)N2CCN(C(=S)NCc3ccco3)CC2)c1` [Compound 136]: the pKi is no less than 7.30.
As for `N#Cc1ccc(Sc2cc(Cl)cc(Cl)c2)c(S(=O)(=O)N2CCN(C(=O)c3ccc(C(F)(F)F)cc3)CC2)c1` [Compound 98], the figure is less than 5.30; as for `N#Cc1ccc(Sc2cc(Cl)cc(Cl)c2)c(S(=O)(=O)N2CCN(C(=O)c3ccccc3)CC2)c1` [Compound 99], less than 5.30.
Consider `N#Cc1ccc(Oc2cc(Cl)cc(Cl)c2)c(S(=O)(=O)N2CCN(C(=O)Nc3cccc(F)c3)CC2)c1` [Compound 75, 4-(5-Cyano-2-(3,5-dichlorophenoxy)phenylsulfonyl)-N-(3-fluorophenyl)piperazine-1-carboxamide], for which the pKi was no less than 7.30.
As for `COc1ccc(C(=O)N2CCN(S(=O)(=O)c3cc(C#N)ccc3Oc3cc(C)cc(C)c3)CC2)cc1` [Compound 117], the figure is less than 5.30; as for `N#Cc1ccc(Oc2cc(Cl)cc(Cl)c2)c(S(=O)(=O)N2CCN(C(=O)C3CCCC3)CC2)c1` [Compound 74, 3-(4-(Cyclopentanecarbonyl)piperazin-1-ylsulfonyl)-4-(3,5-dichlorophenoxy)benzonitrile], less than 5.30.
Next, `CCOC(=O)CCNC(=S)N1CCN(S(=O)(=O)c2cc(C#N)ccc2Oc2cc(Cl)cc(Cl)c2)CC1` [Compound 143]: 6.30 to 7.30; `Cc1ccc(OC(=O)N2CCN(S(=O)(=O)c3cc(C#N)ccc3Oc3cc(Cl)cc(Cl)c3)CC2)cc1` [Compound 157]: less than 5.30; `N#Cc1ccc(Sc2cc(Cl)cc(Cl)c2)c(S(=O)(=O)N2CCN(C(=O)c3cccc(F)c3)CC2)c1` [Compound 113]: less than 5.30.
As for `Cc1ccccc1C(=O)N1CCN(S(=O)(=O)c2cc(C#N)ccc2Oc2cc(Cl)cc(Cl)c2)CC1` [Compound 83, 4-(3,5-Dichlorophenoxy)-3-(4-(2-methylbenzoyl)piperazin-1-ylsulfonyl)benzonitrile], the figure is 5.30 to 6.30; as for `CC(C)CC(=O)N1CCN(S(=O)(=O)c2cc([N+](=O)[O-])ccc2Oc2cc(Cl)ccc2Cl)CC1` [Compound 177, 1-(4-(2-(2,5-Dichlorophenoxy)-5-nitrophenylsulfonyl)piperazin-1-yl)-3-methylbutan-1-one], less than 5.30; as for `Cc1ccc(C(=O)N2CCN(S(=O)(=O)c3cc(C#N)ccc3Sc3cc(Cl)cc(Cl)c3)CC2)cc1` [Compound 104], less than 5.30.
`Cc1cc(C)cc(Oc2ccc(C#N)cc2S(=O)(=O)N2CCN(C(=O)C3CCC3)CC2)c1` [Compound 64, 3-(4-(Cyclobutanecarbonyl)piperazin-1-ylsulfonyl)-4-(3,5-dmethylphenoxy)benzonitrile] showed a pKi of less than 5.30.
Next, `CC(=O)N1CCN(S(=O)(=O)c2cc(C#N)ccc2Oc2cc(C)cc(C)c2)CC1` [Compound 107]: less than 5.30; `Cc1ccc(C(=O)N2CCN(S(=O)(=O)c3cc(C#N)ccc3Oc3cc(C)cc(C)c3)CC2)cc1` [Compound 114]: 5.30 to 6.30.
The compound `Cc1cc(C)cc(Oc2ccc(C#N)cc2S(=O)(=O)N2CCN(C(=O)Nc3cccc(F)c3)CC2)c1` [Compound 61, 4-(5-Cyano-2-(3,5-dimethylphenoxy)phenylsulfonyl)-N-(3-fluorophenyl)piperazine-1-carboxamide] had a pKi of less than 5.30.
As for `N#Cc1ccc(Oc2cc(Cl)cc(Cl)c2)c(S(=O)(=O)N2CCN(C(=O)c3cnccn3)CC2)c1` [Compound 133], the figure is 6.30 to 7.30.
As for `Cc1cccc(C(=O)N2CCN(S(=O)(=O)c3cc(C#N)ccc3Oc3cc(Cl)cc(Cl)c3)CC2)c1` [Compound 79, 4-(3,5-Dichlorophenoxy)-3-(4-(3-methylbenzoyl)piperazin-1-ylsulfonyl)benzonitrile], the figure is no less than 7.30; as for `Cc1ccc(S(=O)(=O)N2CCN(S(=O)(=O)c3cc(C#N)ccc3Oc3cc(Cl)cc(Cl)c3)CC2)cc1` [Compound 77, 4-(3,5-Dichlorophenoxy)-3-(4-tosylpiperazin-1-ylsulfonyl)benzonitrile], no less than 7.30.
As for `Cc1cc(C)cc(Oc2ccc(C#N)cc2S(=O)(=O)N2CCN(C(=O)Nc3ccc(C#N)cc3)CC2)c1` [Compound 116], the figure is less than 5.30; as for `Cc1nnsc1C(=O)N1CCN(S(=O)(=O)c2cc(C#N)ccc2Sc2cc(Cl)cc(Cl)c2)CC1` [Compound 139], no less than 7.30.
In turn, `Cc1cc(C)cc(Oc2ccc(C#N)cc2S(=O)(=O)N2CCN(C(=O)Nc3ccc([N+](=O)[O-])cc3)CC2)c1` [Compound 119] gave a pKi of less than 5.30.
As for `Cc1ccsc1C(=O)N1CCN(S(=O)(=O)c2cc(C#N)ccc2Oc2cc(Cl)cc(Cl)c2)CC1` [Compound 138], the figure is 6.30 to 7.30; as for `Cc1cccc(C(=O)N2CCN(S(=O)(=O)c3cc(C#N)ccc3Sc3cc(Cl)cc(Cl)c3)CC2)c1` [Compound 105], less than 5.30; as for `Cc1cc(C)cc(Sc2ccc(C#N)cc2S(=O)(=O)N2CCN(C(=O)c3ccccc3)CC2)c1` [Compound 89, 3-(4-Benzoylpiperazin-1-ylsulfonyl)-4-(3,5-dimethylphenylthio)benzonitrile], 6.30 to 7.30.
`CC(C)NC(=O)N1CCN(S(=O)(=O)c2cc(C#N)ccc2Sc2cc(Cl)cc(Cl)c2)CC1` [Compound 100] showed a pKi of less than 5.30.
Take `N#Cc1ccc(Oc2cc(Cl)cc(Cl)c2)c(S(=O)(=O)N2CCN(C(=O)NCc3ccco3)CC2)c1` [Compound 135]: the pKi was no less than 7.30.
Next, `Cc1ccc(NC(=O)N2CCN(S(=O)(=O)c3cc(C#N)ccc3Oc3cc(C)cc(C)c3)CC2)cc1` [Compound 115]: less than 5.30; `COc1ccc(C(=O)N2CCN(S(=O)(=O)c3cc([N+](=O)[O-])ccc3Oc3cc(Cl)ccc3Cl)CC2)cc1` [Compound 184, (4-(2-(2,5-Dichlorophenoxy)-5-nitrophenylsulfonyl)piperazin-1-yl)(4-methoxyphenyl)methanone]: less than 5.30; `N#Cc1ccc(Oc2cc(Cl)cc(Cl)c2)c(S(=O)(=O)N2CCN(C(=O)c3nc4ccccc4s3)CC2)c1` [Compound 132]: less than 5.30.
As for `CC(C)CC(=O)N1CCN(S(=O)(=O)c2cc(C#N)ccc2Oc2cc(Cl)cc(Cl)c2)CC1` [Compound 72, 4-(3,5-Dichlorophenoxy)-3-(4-(3-methylbutanoyl)piperazin-1-ylsulfonyl)benzonitrile], the figure is 5.30 to 6.30; as for `N#Cc1ccc(Oc2cc(Cl)cc(Cl)c2)c(S(=O)(=O)N2CCN(C(=O)c3ccccc3)CC2)c1` [Compound 70, 3-(4-Benzoylpiperazin-1-ylsulfonyl)-4-(3,5-dichlorophenoxy)benzonitrile], no less than 7.30; as for `N#Cc1ccc(Oc2cc(Cl)cc(Cl)c2)c(S(=O)(=O)N2CCN(C(=S)NC(=O)c3ccccc3)CC2)c1` [Compound 145], no less than 7.30.
Next, `Cc1cc(C)cc(Oc2ccc(C#N)cc2S(=O)(=O)N2CCN(S(=O)(=O)CC(C)C)CC2)c1` [Compound 56, 4-(3,5-Dimethylphenoxy)-3-(4-(isobutylsulfonyl)piperazin-1-ylsulfonyl)benzonitrile]: less than 5.30; `N#Cc1ccc(Oc2cc(Cl)cc(Cl)c2)c(S(=O)(=O)N2CCN(C(=O)N3CCOCC3)CC2)c1` [Compound 134]: 6.30 to 7.30; `N#Cc1ccc(Oc2cc(Cl)cc(Cl)c2)c(S(=O)(=O)N2CCN(C(=O)c3ccco3)CC2)c1` [Compound 122]: less than 5.30.
